Results from ChEMBL document CHEMBL1144045, “Potent achiral agonists of the growth hormone secretagogue (ghrelin) receptor. Part 2: Lead optimisation” (Bioorg Med Chem Lett, 2008).

Experiments:
[1] = target: T1, Growth hormone secretagogue receptor type 1 (Homo sapiens, UniProt Q92847); assay: Agonist activity at human GHSR1a by FLIPR assay; type: functional
[2] = target: T1, Growth hormone secretagogue receptor type 1; assay: Agonist activity at human GHSR1a by FLIPR assay relative to human ghrelin; type: functional
Rattus norvegicus = assay: Effect on food intake in Sprague-Dawley rat at 3 mg/kg, po after 2 hrs; type: functional
[3] = target: 5-hydroxytryptamine receptor 1B (Homo sapiens, UniProt P28222); assay: Binding affinity to 5HT1B receptor
Sequence of 5-hydroxytryptamine receptor 1B (P28222 whole entry): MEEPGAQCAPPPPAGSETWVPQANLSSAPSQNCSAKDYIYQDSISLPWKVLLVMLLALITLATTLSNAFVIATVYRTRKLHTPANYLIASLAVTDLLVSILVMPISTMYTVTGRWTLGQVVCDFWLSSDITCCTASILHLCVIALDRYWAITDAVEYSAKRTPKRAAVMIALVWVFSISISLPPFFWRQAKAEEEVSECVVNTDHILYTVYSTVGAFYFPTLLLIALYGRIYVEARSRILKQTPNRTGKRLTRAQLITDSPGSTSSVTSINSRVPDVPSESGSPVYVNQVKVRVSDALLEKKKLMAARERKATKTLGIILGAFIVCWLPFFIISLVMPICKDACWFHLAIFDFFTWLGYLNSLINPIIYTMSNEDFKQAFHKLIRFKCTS

[4] = Oral bioavailability in Sprague-Dawley rat at 3 mg/kg; type: ADME, organism-based; conditions: in vivo
[5] = Clearance in Sprague-Dawley rat at 1 mg/kg, iv; type: ADME, organism-based; design: dose 1 mg/kg, route intravenous; conditions: in vivo
[6] = Half life in Sprague-Dawley rat; type: ADME, organism-based; conditions: in vivo
[7] = Volume of distribution at steady state in Sprague-Dawley rat; type: ADME, organism-based; conditions: in vivo, read-out: Vdss

T1 sequence (Q92847 whole entry): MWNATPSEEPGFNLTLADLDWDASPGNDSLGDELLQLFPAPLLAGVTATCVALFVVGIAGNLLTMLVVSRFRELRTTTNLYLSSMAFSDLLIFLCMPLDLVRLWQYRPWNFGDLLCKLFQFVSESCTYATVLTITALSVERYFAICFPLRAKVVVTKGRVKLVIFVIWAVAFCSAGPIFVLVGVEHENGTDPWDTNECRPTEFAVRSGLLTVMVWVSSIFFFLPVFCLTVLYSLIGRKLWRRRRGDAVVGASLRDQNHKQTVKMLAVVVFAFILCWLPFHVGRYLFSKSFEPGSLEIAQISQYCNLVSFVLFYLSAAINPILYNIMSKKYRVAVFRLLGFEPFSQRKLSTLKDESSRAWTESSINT

SMILES | EC50 [1] | Intrinsic activity [2] | further results
COc1ccc(F)c(-c2ccc(S(=O)(=O)Nc3cc(N4C[C@@H](C)N[C@@H](C)C4)ccc3OC)cc2)c1 | 0.398 nM | 1.2 | 
C[C@@H]1CN(c2ccc(Cl)c(NS(=O)(=O)c3ccc(-c4ccccn4)s3)c2)C[C@H](C)N1 | 39.8 nM | 1 | 
COc1ccc(N2C[C@@H](C)N[C@@H](C)C2)cc1NS(=O)(=O)c1ccc(Oc2ccccc2)cc1 | 63.1 nM | 0.9 | 
CC(C)Oc1ccc(N2C[C@@H](C)N[C@@H](C)C2)cc1NS(=O)(=O)c1ccc(-c2ccccn2)s1 | 100 nM | 1.1 | 
COc1ccc(N2C[C@@H](C)N[C@@H](C)C2)cc1NS(=O)(=O)c1ccc(-c2cccs2)cc1 | 3.98 nM | 1 | Activity (Rattus norvegicus): 292%; Ki [3]: > 3160 nM; bioavailability [4]: 74%; clearance [5]: 26 mL/min/kg; half-life [6]: 1 h; Vd [7]: 1.6 L/kg
C[C@@H]1CN(c2cc(NS(=O)(=O)c3ccc(-c4ccccn4)s3)ccc2C#N)C[C@H](C)N1 | 631 nM | 0.9 | 
COc1ccc(N2C[C@@H](C)N[C@@H](C)C2)cc1NS(=O)(=O)c1ccc(-c2ccc(C)o2)cc1 | 0.794 nM | 1 | Activity (Rattus norvegicus): 544%; Ki [3]: > 3160 nM; bioavailability [4]: 75%; clearance [5]: 24 mL/min/kg; half-life [6]: 1.9 h; Vd [7]: 3.3 L/kg
COc1ccc(N2C[C@@H](C)N[C@@H](C)C2)cc1NS(=O)(=O)c1ccc(OCc2ccccc2)cc1 | 100 nM | 0.8 | 
CC(=O)c1ccc(N2C[C@@H](C)N[C@@H](C)C2)cc1NS(=O)(=O)c1ccc(-c2ccccn2)s1 | 39.8 nM | 0.9 | 
COc1ccc(N2C[C@@H](C)N[C@@H](C)C2)cc1NS(=O)(=O)c1ccc(-c2cnco2)s1 | 2.51 nM | 0.9 | 
COc1ccc(N2C[C@@H](C)N[C@@H](C)C2)cc1NS(=O)(=O)c1ccc(-c2cncnc2)cc1 | 316 nM | 0.6 | 
C[C@@H]1CN(c2ccc(F)c(NS(=O)(=O)c3ccc(-c4ccccn4)s3)c2)C[C@H](C)N1 | 100 nM | 0.8 | 
COc1ccc(N2C[C@@H](C)N[C@@H](C)C2)cc1NS(=O)(=O)c1ccc(-c2cc(Cl)ccc2F)cc1 | 0.501 nM | 1 | 
COc1ccc(N2C[C@@H](C)N[C@@H](C)C2)cc1NS(=O)(=O)c1cccc(-c2ccccc2)c1 | 158 nM | 1 | 
C[C@@H]1CN(c2cccc(NS(=O)(=O)c3ccc(-c4ccccn4)s3)c2)C[C@H](C)N1 | 39.8 nM | 0.8 | 
COc1ccc(N2C[C@@H](C)N[C@@H](C)C2)cc1NS(=O)(=O)c1ccc(-c2ccccc2)cc1 | 6.31 nM | 1 | 
COc1ccc(N2C[C@@H](C)N[C@@H](C)C2)cc1NS(=O)(=O)c1ccc(-c2ccco2)cc1 | 3.98 nM | 0.9 | 
COc1ccc(N2C[C@@H](C)N[C@@H](C)C2)cc1NS(=O)(=O)c1cccc(-c2ccco2)c1 | 20 nM | 1 | 
C[C@@H]1CN(c2ccc(C(=O)N(C)C)c(NS(=O)(=O)c3ccc(-c4ccccn4)s3)c2)C[C@H](C)N1 | 794 nM | 0.9 | 
COc1ccc(NS(=O)(=O)c2ccc(-c3ccccn3)s2)cc1N1C[C@@H](C)N[C@@H](C)C1 | 15.8 nM | 0.9 | 
COc1ccc(N2C[C@@H](C)N[C@@H](C)C2)cc1NS(=O)(=O)c1ccc(-n2cccn2)cc1 | 15.8 nM | 0.8 | 
COc1ccc(N2C[C@@H](C)N[C@@H](C)C2)cc1NS(=O)(=O)c1ccc(-c2cccs2)cc1F | 2 nM | 0.9 | 
COc1ccc(N2C[C@@H](C)N[C@@H](C)C2)cc1NS(=O)(=O)c1ccc(Br)cc1 | 126 nM | 0.7 | 
COc1ccc(N2C[C@@H](C)N[C@@H](C)C2)cc1NS(=O)(=O)c1ccc(-c2ccccn2)s1 | 10 nM | 1.1 | 
CCOc1ccc(N2C[C@@H](C)N[C@@H](C)C2)cc1NS(=O)(=O)c1ccc(-c2ccccn2)s1 | 39.8 nM | 0.8 | 
COc1ccc(N2C[C@@H](C)N[C@@H](C)C2)cc1NS(=O)(=O)c1ccc(-c2ccncc2)cc1 | 316 nM | 0.7 | 
COc1ccc(N2C[C@@H](C)N[C@@H](C)C2)cc1NS(=O)(=O)c1ccc(-c2cccs2)cc1Cl | 0.794 nM | 0.9 | 
COc1ccc(N2C[C@@H](C)N[C@@H](C)C2)cc1NS(=O)(=O)c1ccc(N2CCCC2=O)cc1 | 39.8 nM | 0.8 | 
COc1cccc(-c2ccc(S(=O)(=O)Nc3cc(N4C[C@@H](C)N[C@@H](C)C4)ccc3OC)cc2)c1 | 2 nM | 1 | 
